In the experiment the target is T1, HCV NS3/4A (wild-type) (Hepatitis C virus genotype 1b, UniProt O92972).
T1 construct: The NS3/4A construct represented the individual NS3 proteinase domain N-terminally fused with an NS4A co-factor; 6xHis; purchased AnaSpec (Fremont, CA)
The experiment can be described thus: NS3/4A activity assay with FRET peptide substrate, wild-type enzyme. The class given is biochemical, HCV genotype 1b, strain HC-J4. The source says: Reagents were purchased from Sigma unless indicated otherwise. The FRET substrate Ac-DE-D(Edans)-EE-Abu-ψ-[COO]-AS-K(Dabsyl)-NH2, purified recombinant wild-type NS3/4A from HCV genotype 1b, strain HC-J4, and the mutants with the V36M, R155K, A156T, D168A and V170A resistance mutations were from AnaSpec (Fremont, CA). The NS3/4A construct represented the individual NS3 proteinase domain N-terminally fused with an NS4A co-factor and tagged with a 6xHis tag. NS3/4A was in active form and the pre-activation by pep-4A or pep4AK was not necessary. Pyroglutamic acid-Arg-Thr-Lys-Arg-7-amino-4-methylcoumarin was from Peptides International (Louisville, KY). West Nile virus NS2B-NS3 proteinase (strain NY99) was expressed, purified and refolded to restore its functional activity as described earlier. The pET15b-Den2-CF40-Gly-NS3pro 185 plasmid encoding the Dengue virus type 2 NS2B-NS3 protease was a kind gift of Dr. Subhash Vasudevan (Program in Emerging Infectious Diseases, DUKE-NUS Graduate Medical School, Singapore). DV NS2B-NS3 proteinase was expressed purified and refolded to restore its functional activity as described previously, [70]. The expression of the soluble C-terminally truncated human furin construct in Sf9 insect cells (an ovarian cell line from fall armyworm Spodoptera frugiperda; Invitrogen, Carlsbad, CA) infected with the recombinant baculovirus and purification of soluble furin from the medium were described earlier. Original human hepatocarcinoma Huh7 cells were obtained from ATCC (Manassas, VA).
The NS3/4A activity assay was performed at 37°C in triplicate in wells of a 96-well plate in 0.2 ml 50 mM HEPES, pH 7.5, containing 100 mM NaCl, 10 mM DTT, 20% glycerol, the Ac-DE-D(Edans)-EE-Abu-ψ-[COO]-AS-K(Dabsyl)-NH2 substrate (10 µM) and the NS3/4A enzyme (10 nM). Reaction velocity was monitored continuously at λex = 355 nm and λem = 500 nm for 10 min using a Spectramax Gemini EM fluorescence spectrophotometer (Molecular Devices, Sunnyvale, CA) and the initial rate of reaction v was recorded for each reaction. There was no significant additional absorption by compounds 1–8 we identified, which might interfere with NS3/4A assay. Compound stock solutions (10 mM) were made in 100% DMSO. Stocks were then diluted using the assay buffer. As a result, the final DMSO concentration was always below 1% in the assay reactions.
To measure the inhibitory potency of the compounds, their increasing concentrations were pre-incubated with the individual proteinases in the corresponding buffer for 30 min at ambient temperature. At least, 7–9 different concentrations were used for each inhibitor. The residual activity of the enzymes was then measured as above. The IC50 values of the inhibitory compounds were calculated by determining the concentrations of the compounds needed to inhibit 50% of the enzyme activity against the peptide substrate. GraphPad Prism was used as fitting software.

[1] abbreviates: Table S1 100-1000, wild-type NS3/4A, FRET peptide substrate, read-out: NS3/4A IC50 range class 100-1000.
The mark [2] stands for this setting: Table S1, wild-type NS3/4A, FRET peptide substrate, read-out: NS3/4A IC50 range class 10 -100.
[3] abbreviates: wild-type NS3/4A 10 nM, Ac-DE-D(Edans)-EE-Abu-ψ-[COO]-AS-K(Dabsyl)-NH2 10 µM, 30 min pre-incubation, read-out: NS3/4A IC50.

SMILES strings stand for the structures. Read-outs that look alike come from different tables or passages of the source.

T1 sequence (O92972 1027-1208): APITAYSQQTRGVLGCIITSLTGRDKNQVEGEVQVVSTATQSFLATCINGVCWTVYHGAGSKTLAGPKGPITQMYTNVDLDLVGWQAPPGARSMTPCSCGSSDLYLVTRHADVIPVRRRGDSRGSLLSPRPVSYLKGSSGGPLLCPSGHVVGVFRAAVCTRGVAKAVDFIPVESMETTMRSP

With `CN(C)CCCNc1nc(-c2cccc(C(Cl)(Cl)Cl)c2)nc(C(Cl)(Cl)Cl)n1` [Compound 44], under setting [1], the IC50 is 100 to 1000 µM. Still for that read-out and setting: the figure for `OCCOCn1nc(-c2ccccc2)nc1-c1cnccn1` [Compound 51] is 100 to 1000 µM. Turning to `O=C(Nc1ccc(Cl)c(Cl)c1)c1ccc(C(=O)Nc2ccc(Cl)c(Cl)c2)cc1` [Compound 21], under setting [2], the IC50 was in the range of 10 to 100 µM. With `O=C(c1ccco1)c1c(C(F)(F)F)n([O-])c2cc(Cl)c(Cl)cc2[n+]1=O` [Compound 11], the IC50 under setting [3] is 6.5 µM. In the case of `FC(F)(F)C(F)(F)c1nc2nc(Cl)c(Cl)nc2[nH]1` [Compound 45], the IC50 under setting [1] lay in the range of 100 to 1000 µM. Regarding `NC(=S)/N=C(\c1nc2ccc(Cl)cc2[nH]c1=O)C(O)c1ccccc1Cl` (stereo not drawn) [Compound 50], the IC50 under setting [1] lay in the range of 100 to 1000 µM. Same read-out and setting: in the case of `Cc1cc(S(=O)(=O)Nc2nc3ccsc3c(=O)n2Cc2ccccc2)c(S)cc1Cl` [Compound 60] it was 100 to 1000 µM. With `O=C(Nc1ccc(Cl)c(Cl)c1)C1C(=O)C(=O)N(c2ccc(Cl)c(Cl)c2)C1=O` (stereo not drawn) [Compound 24], the IC50 under setting [2] is 10 to 100 µM. With `CC(=O)Nc1ccc(NC(=O)c2c(Cl)c(Cl)c(Cl)c(Cl)c2-c2nc3ccccc3[nH]2)cc1` [Compound 57], the IC50 under setting [1] lay within 100 to 1000 µM. For `Cc1nn(C(=S)S)c(C)c1N=Nc1cccc(Cl)c1Cl` [Compound 26], under setting [2], the IC50 is 10 to 100 µM.

Regarding `Cc1cccc(C(C)C)c1NC(=O)C(=O)CC(=O)c1sc(Nc2ccccc2Cl)nc1C` [Compound 56], under setting [1], the IC50 lay in the range of 100 to 1000 µM. Take `O=S(=O)(Nc1cc(Cl)c(Cl)cc1N=Cc1ccc(N(CCCl)CCCl)cc1F)c1ccccc1` [Compound 36]: under setting [2], the IC50 lay in the range of 10 to 100 µM. Same read-out and setting: in the case of `Oc1c(Br)cc(CN(Cc2cc(Br)c(O)c(Br)c2)C2CCCCC2)cc1Br` [Compound 13] it was 10 to 100 µM. Take `Clc1nc2nc3n(c2nc1Cl)CCC3` [Compound 46]: the IC50 under setting [1] is 100 to 1000 µM.

With `Clc1ccc(OCc2nn3c(CCCCc4nnc5sc(COc6ccc(Cl)cc6Cl)nn45)nnc3s2)c(Cl)c1` [Compound 35], the IC50 under setting [2] was in the range of 10 to 100 µM. On to `CC(C)N(C(=O)CSc1c(Cl)c(Cl)c(Cl)c(Cl)c1Cl)C(C)C` [Compound 19], for which the IC50 under setting [2] lay within 10 to 100 µM. Same read-out and setting: the figure for `O=C1C=C(Nc2ccc(Cl)cc2Cl)C(=O)C=C1Nc1ccc(Cl)cc1Cl` [Compound 15] is 10 to 100 µM. Consider `CSc1nc2nc(Cl)c(Cl)nc2[nH]1` [Compound 47], for which the IC50 under setting [1] is 100 to 1000 µM.

Turning to `Sc1ccccc1Nc1nc(SCc2ccccc2)nc2n[nH]c(Cc3nc4ccccc4s3)c12` [Compound 34], the IC50 under setting [2] lay in the range of 10 to 100 µM. On to `C(=C\c1ccccc1)/Cn1nc(-c2ccccc2)nc1-c1cnccn1` [Compound 32], for which the IC50 under setting [2] lay in the range of 10 to 100 µM. Same read-out and setting: in the case of `O=[N+]([O-])c1ccc(O)c(C=Nc2cc(Cl)c(Cl)cc2NS(=O)(=O)c2ccccc2)c1` [Compound 37] it was 10 to 100 µM.

On to `Cn1ncc2c(Nc3cc(Cl)ccc3Cl)ncnc21` [Compound 12], for which the IC50 under setting [2] was 10 to 100 µM. Still for that read-out and setting: in the case of `Cc1cc(S(=O)(=O)Nc2nc3cc(-c4ccc(Cl)cc4)sc3c(=O)n2N)c(S)cc1Cl` [Compound 33] it was 10 to 100 µM. For `Cn1ncc2c(Nc3ccc(O)cc3)nc(Cl)nc21` [Compound 42], the IC50 under setting [1] lay in the range of 100 to 1000 µM. As to `COc1ccc(OC)c(NC(=O)c2c(Cl)c(Cl)c(Cl)c(Cl)c2-c2nc3ccccc3[nH]2)c1` [Compound 58], the IC50 under setting [1] lay within 100 to 1000 µM. The same measure, in the same setting: the figure for `FC(F)(F)C1=N/C(=C2\N=C(C(F)(F)F)N=C2Cl)C(Cl)=N1` [Compound 48] is 100 to 1000 µM. With `O=C(CCCC(=O)N/N=C/c1ccc(Cl)cc1Cl)N/N=C/c1ccc(Cl)cc1Cl` [Compound 17], the IC50 under setting [2] was in the range of 10 to 100 µM. `O=C(O)c1c(Br)c(Br)c(Br)c(Br)c1C(=O)Nc1cc([N+](=O)[O-])ccc1O` [Compound 22]: the IC50 under setting [2] was 10 to 100 µM. For the compound `Brc1ccc2c(ccc3c2nnc2ncnn23)c1` [Compound 30], the IC50 under setting [2] lay within 10 to 100 µM.

For the compound `O=S(=O)(Nc1c(Cl)c(Cl)c(Cl)c(Cl)c1NS(=O)(=O)c1ccccc1)c1ccccc1` [Compound 52], the IC50 under setting [1] is 100 to 1000 µM. As to `O=C(Nc1ccc(Cl)c(Cl)c1)C(=O)C(C(=O)c1ccccc1F)C1OC(=O)c2ccccc21` (stereo not drawn) [Compound 39], the IC50 under setting [2] is 10 to 100 µM.

In the case of `OCC(O)C(O)C(O)c1nn(-c2ccccc2)c2nc3cc(Cl)c(Cl)cc3nc12` (stereo not drawn) [Compound 31], the IC50 under setting [2] is 10 to 100 µM.

Regarding `Cc1nn(C(N)=S)c(C)c1N=Nc1cccc(Cl)c1Cl` [Compound 28], the IC50 under setting [2] is 10 to 100 µM. Take `CC(CNc1nc(Nc2ccc(Cl)c(Cl)c2)nc(C(Cl)(Cl)Cl)n1)N(C)C` (stereo not drawn) [Compound 49]: under setting [1], the IC50 was in the range of 100 to 1000 µM. For the compound `Cc1c(N=Nc2cccc(Cl)c2Cl)c(-c2ccccc2)nn1C(=S)S` [Compound 27], under setting [2], the IC50 lay in the range of 10 to 100 µM. The same measure, in the same setting: the figure for `O=C1c2cc(Cl)ccc2-c2ccc(N=Cc3ccc(Cl)c(Cl)c3)cc21` [Compound 16] is 10 to 100 µM. The same measure, in the same setting: in the case of `O=C(CNC(=O)Nc1ccc(Cl)c(Cl)c1)NNC(=O)Nc1ccc(F)c(Cl)c1` [Compound 23] it was 10 to 100 µM. With `O=C(Nc1ccc(Br)cc1)C(=O)C(C(=O)c1ccc(Cl)c(Cl)c1)C1OC(=O)c2ccccc21` (stereo not drawn) [Compound 55], the IC50 under setting [1] is 100 to 1000 µM. As to `O=[N+]([O-])c1cc([N+](=O)[O-])c2ccccc2c1NS(=O)(=O)c1ccc(Cl)c(Cl)c1Cl` [Compound 53], the IC50 under setting [1] was 100 to 1000 µM.

As to `CSC(=S)n1nc(C)c(N=Nc2cccc(Cl)c2Cl)c1C` [Compound 29], the IC50 under setting [2] lay in the range of 10 to 100 µM. As for `S=c1[nH]n2c(COc3ccc(OCc4nnc5sc(=S)[nH]n45)c(Cl)c3)nnc2s1` [Compound 59], the IC50 under setting [1] was 100 to 1000 µM. For `S=c1[nH]nc(CCCCc2n[nH]c(=S)n2/N=C/c2ccc(Cl)cc2Cl)n1/N=C/c1ccc(Cl)cc1Cl` [Compound 10], the IC50 under setting [3] worked out at 5.25 µM. For the compound `O=C(N/N=C\c1cc(Br)cc(Br)c1O)N/N=C/c1cc(Br)cc(Br)c1O` [Compound 20], under setting [2], the IC50 fell in the range of 10 to 100 µM. Same read-out and setting: the figure for `Clc1ccc(Nc2nc(SCc3ccccc3)nc3n[nH]c(Cc4nn[nH]n4)c23)cc1` [Compound 40] is 10 to 100 µM. `CC(C)(CCC#N)c1nc2sc(C(C)(C)CCC#N)nc2s1` [Compound 43]: under setting [1], the IC50 was 100 to 1000 µM.

`Oc1ccc(C=NCCN=Cc2ccc(O)cc2O)c(O)c1.[Ni]` [Compound 14]: the IC50 under setting [2] lay in the range of 10 to 100 µM.

As to `FC(F)(F)c1cccc(-c2nc3nc(Cl)c(Cl)nc3[nH]2)c1` [Compound 18], the IC50 under setting [2] lay in the range of 10 to 100 µM. In the case of `O=S(=O)(Nc1c(Cl)c(Cl)c(NS(=O)(=O)c2ccccc2)c(Cl)c1Cl)c1ccccc1` [Compound 38], under setting [2], the IC50 fell in the range of 10 to 100 µM. On to `O=C1CS(=O)(=O)CN1c1ccc(Cl)c(Cl)c1` [Compound 25], for which the IC50 under setting [2] is 10 to 100 µM.

As for `O=C(CCc1nnc2s/c(=C\c3ccccc3[N+](=O)[O-])c(=O)n12)Nc1cc(Cl)c(Cl)cc1Cl` [Compound 54], under setting [1], the IC50 lay within 100 to 1000 µM. On to `FC(F)(F)c1nc2nc(Cl)c(Cl)nc2s1` [Compound 9], for which the IC50 under setting [3] is 4.5 µM.

Source of the values: paper PMC3388044, “Probing of Exosites Leads to Novel Inhibitor Scaffolds of HCV NS3/4A Proteinase” (PLoS ONE, 2012).
